Earlier results on one substance are cited in US20220211661A1, “GREEN TEA CATECHINS EUTECTIC SYSTEM” (ASSISTANCE PUBLIQUE - HOPITAUX DE PARIS, priority 2019, published 2022).

For this data set the following is noted: after 1-h ultra violet irradiation.

Take (-)-epigallocatechin-3-gallate [EGCG]: the EGCG decomposed is listed as 70%.
